Measurements taken from patent US8546086B2, “Use of neuregulin-β as an indicator and/or target” (Mind-NRG SA, priority 2000, dated 2013).

Assays:
Type in all cases: cell-based, rat
[1] = tested on: Neuregulin-β; test: 2-D-PAGE / MALDI-TOF-MS / ESI-MS of glutamate-induced changes in hippocampal proteins; conditions: for Quantity of Neu-β (32 kDa spot) in 2-D-PAGE: FIG. 4: B=glutamate, C=glutamate+MK-801 (10 μM MK-801)
Description: (§1) Hippocampal cells were stimulated with stimulation buffer (in mM): NaCl (125), KCL (5), CaCl2 (2-6), MgCl2 (0.8) glucose (5-10), HEPES (20), L-glutamate (0.01-0.1), glycine (0.01), bicucullin (0.01), pH 7.2; (A=control, B=glutamate, C=glutamate+MK-801; MK-801 is a specific glutamate receptor antagonist). In this connection, the measured or control quantity indicative of performance was a fluorescence signal measured using Fura-2, which signal is proportional to the calcium concentration (all the substances can be found in chemical catalogues supplied by Torris or Sigma).
Furthermore, proteins which change under the chosen experimental conditions, or otherwise behave in a conspicuous manner, are characterized and identified using the techniques of proteome research, namely by means of two-dimensional gel electrophoresis, MALDI-TOF-MS and ESI-MS.
Neuregulin-β was identified by means of two-dimensional PAGE using isoelectric focusing and employing immobilized, nonlinear pH gradients of from 3 to 10 and linear gradients of from 4 to 7 as the first dimension and SDS-PAGE (12% acrylamide) as the second dimension.
The protein was excised from the gels, subjected to a trypsin cleavage within the gel and subsequently [lacuna] mass-spectroscopically by means of MALDI-TOF mass fingerprint and ESI peptide sequencing (Corthals et al., Identification of Proteins by Mass-Spectrometry, in: Proteome Research, Two-Dimensional Gel-Electrophoresis and Identification Methods, Thierry Rabilloud, Ed., Springer, Berlin (2000), 197-232).
The identity of the protein was confirmed by analyzing selected peptides by means of MS/MS analysis using ion traps, electrospray, mass spectroscopy of the peptide mixture, which was not fractionated and which had previously been analyzed by MALDI-TOF. The MS/MS analysis of m/z 798.4 was sufficient in order, inter alia, to identify the 88-94 peptide of neuregulin-β. The MS/MS analysis of m/z=842.7 confirmed the sequence of the peptide around position 81-87. […]

[2] = tested on: hippocampal cells; test: Neurotransmitter (GABA) release in perfusate by fluorescence HPLC; conditions: hippocampal neurons, 100 μm glutamate for 30 seconds, +22° C.; control 87 pMol
Procedure: (§2) Suitable cell culture systems, in the case of neuregulin-β hippocampal primary cultures obtained from prenatal or neonatal rats (described in, for example, “Rat hippocampal neurons in low-density culture”, K. Goslin, H. Asmussen, G. Banker; in “Culturing Nerve Cells, 2nd edition 1998, pp. 339 ff; K. Goslin and G. Banker, eds. MIT Press, Cambridge, Mass., USA), are cultured on the above-described slides, introduced into the flow cell and initially characterized microscopically (morphological micrographs, etc. in the phase contrast microscope). […]
(§3) Almost in parallel to this, the perfusate is subjected to a synchronized fractionation and analysis; in the case of hippocampal neurons, of neurotransmitters, by means of HPLC using fluorescence detection, in the case of other low molecular weight extracellular components, by means of EMI-MS, and in the case of stable isotopic tracers and metal ions, by means of ICP-MS.
(§4) In the above-described set up, the following parameters were determined simultaneously or in an explicitly correlating manner. […] Accompanying this, are the simultaneous changes in the release of neurotransmitter (GABA), the influx of Mg into the cells, as detected using the stable isotopic tracer ^26Mg. […]

[3] = tested on: hippocampal cells; test: Intracellular 26Mg stable isotopic tracer by ICP-MS; conditions: hippocampal neurons, 100 μm glutamate for 30 seconds, +22° C.; control 25 nM/mg of protein
Procedure: as §2, §3, §4

[4] = tested on: hippocampal cells; test: Fura-2 fluorescence imaging of intracellular calcium after glutamate stimulation in flow cell; conditions: hippocampal neurons
Description: as §1, with “Sigma). […]” for “Sigma).”
The fluorescence signals in a larger number of cells are detected, in a time-resolved manner, in dependence on the stimulation conditions (temperature, active compound).
as §4

| Structure (SMILES) | Quantity of Neu-β (32 kDa spot) in 2-D-PAGE [1] | GABA measured quantity (prestimulated) [2] | 26Mg (intracellular) concentration (prestimulated) [3] | Calcium (intracellular) concentration (prestimulated) ([4]; 100 μm glutamate for 30 seconds, +22° C., control 350 nM) | Calcium inflow (Fura-2) ([4]; qualitative) | Neuregulin-β expression (prestimulated) ([1]; hippocampal neurons, glutamate stimulated, control not expressed) |
| --- | --- | --- | --- | --- | --- | --- |
| C[C@]12N[C@H](Cc3ccccc31)c1ccccc12 [MK-801] | only weakly present, or cannot be found at all |  |  |  |  |  |
| N[C@@H](CCC(=O)O)C(=O)O [glutamate, L-glutamate] | substantially larger quantity | 74 pmol | 45 nM/mg of nM/mg of protein | 850 nM | induces an inflow of calcium ions | Strongly |
